The source of these data is ChEMBL document CHEMBL4385629, “Evaluation of quinoxaline compounds as ligands of a site adjacent to S2 (AS2) of cruzain” (Bioorg Med Chem Lett, 2019).

Calls of active or inactive are those of the source. The rule behind the calls is not given here.

The target of experiment [1] is Cruzipain (Trypanosoma cruzi) (UniProt P25779). As to the kind of experiment: Activation of Trypanosoma cruzi cruzain assessed as increase in enzyme activity using Z-FR-AMC as substrate at 0.1 mM incubated for 15 mins in dark and measured at 5 mins interval for 60 mins by fluorescence based method relative to control.
For experiment [2] the target is unchanged. Nature of the experiment: Inhibition of Trypanosoma cruzi cruzain assessed as reduction in 7-amino-4-methylcoumarin production using Z-FR-AMC as substrate and measured up to 60 mins by fluorescence based method.

Cruzipain (Trypanosoma cruzi), sequence (P25779 123-467 limits assumed): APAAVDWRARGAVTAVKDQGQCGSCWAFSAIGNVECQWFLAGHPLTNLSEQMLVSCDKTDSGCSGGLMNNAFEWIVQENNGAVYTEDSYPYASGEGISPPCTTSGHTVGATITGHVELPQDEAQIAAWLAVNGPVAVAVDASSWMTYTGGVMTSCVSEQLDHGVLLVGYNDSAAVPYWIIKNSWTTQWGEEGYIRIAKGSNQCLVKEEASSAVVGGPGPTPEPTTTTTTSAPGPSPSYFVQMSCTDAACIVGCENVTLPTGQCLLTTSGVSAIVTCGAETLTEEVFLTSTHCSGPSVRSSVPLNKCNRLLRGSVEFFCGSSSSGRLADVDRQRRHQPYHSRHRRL

In the case of `Oc1nc2ccccc2nc1O`, the fold change (FC) in experiment [1] amounted to 3. Moreover, the inhibition result in experiment [2] is “inactive”.

For `O=C(O)CCc1nc2ccccc2[nH]c1=O`, the fold change (FC) in experiment [1] came to 10. In experiment [2], the inhibition result is “inactive”.

Turning to `O=C1CNc2ccccc2N1`, the fold change (FC) in experiment [1] was determined as 15. Also, the inhibition result in experiment [2] was “inactive”.
